Laboratory results published in US12435061B2 (priority 2020, dated 2025).
Where two headings read alike, the source gives them in different places.

Molecular target: hTRPV3 (Homo sapiens (Human), UniProt Q8NET8)
Assay: Whole-cell patch clamp, hTRPV3 Phase 1 / Phase 2 currents
Assay type: cell-based
Outline: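 Currents are activated by 20 μM 2-APB or by perfusate at 28 °C or warmer, in Ringer's solution, and quantified at ±80 mV.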

[1] = Phase 1 current, inward, whole-cell patch clamp, read-out: hTRPV3 Patch P1 Inwd
[2] = Phase 1 current, read-out: hTRPV3 (nM) (Phase 1)
[3] = Phase 2 current, inward, whole-cell patch clamp, read-out: hTRPV3 Patch P2 Inwd
[4] = Phase 2 current, read-out: hTRPV3 (nM) (Phase 2)

hTRPV3, sequence (Q8NET8 whole entry): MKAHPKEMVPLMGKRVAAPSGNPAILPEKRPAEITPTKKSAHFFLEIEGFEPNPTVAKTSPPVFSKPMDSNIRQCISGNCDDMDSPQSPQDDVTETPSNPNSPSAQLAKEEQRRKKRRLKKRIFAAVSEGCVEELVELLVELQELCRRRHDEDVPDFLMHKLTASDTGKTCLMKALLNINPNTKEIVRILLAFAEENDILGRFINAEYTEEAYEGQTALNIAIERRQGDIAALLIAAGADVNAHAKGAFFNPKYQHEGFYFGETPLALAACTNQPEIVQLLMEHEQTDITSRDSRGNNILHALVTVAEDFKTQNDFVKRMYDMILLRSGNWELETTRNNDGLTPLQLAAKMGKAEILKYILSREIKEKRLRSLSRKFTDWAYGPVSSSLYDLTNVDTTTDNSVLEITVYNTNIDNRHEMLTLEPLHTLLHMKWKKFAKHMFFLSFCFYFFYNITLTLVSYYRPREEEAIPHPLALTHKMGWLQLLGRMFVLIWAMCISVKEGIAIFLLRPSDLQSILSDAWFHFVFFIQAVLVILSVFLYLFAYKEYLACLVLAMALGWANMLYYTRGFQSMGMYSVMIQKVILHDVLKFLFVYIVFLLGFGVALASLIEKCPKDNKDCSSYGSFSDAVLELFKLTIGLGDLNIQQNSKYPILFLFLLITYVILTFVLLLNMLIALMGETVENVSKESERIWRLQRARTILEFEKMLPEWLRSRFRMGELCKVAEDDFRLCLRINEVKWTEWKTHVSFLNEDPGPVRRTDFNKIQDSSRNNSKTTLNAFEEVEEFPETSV

SMILES | IC50 [1] [nM] | IC50 [2] [nM] | IC50 [3] [nM] | IC50 [4] [nM] | hTRPV3 (nM) (Phase 1) (Phase 1 current)
O=C(c1ccc(F)cc1)c1ccc(N2CC[C@H](Oc3ncccc3F)C2)c(CO)c1 [Compound 1-293, (S)-(4-fluorophenyl)(4-(3-(3-fluoropyridin-2-yloxy)pyrrolidin-1-yl)-3-(hydroxymethyl)phenyl)methanone] | 100 to 1000 | 329 | 100 to 1000 | 322 | –
O=C(c1ccc(F)cc1)c1ccc(N2CC[C@H](Oc3ncccc3Cl)C2)c(CCO)c1 [Compound 1-294, (S)-(4-(3-(3-chloropyridin-2-yloxy)pyrrolidin-1-yl)-3-(2-hydroxyethyl)phenyl)(4-fluorophenyl)methanone] | 100 to 1000 | 511 | 100 to 1000 | 502 | –
Cc1ccc(C(=O)c2ccc(N3CC[C@H](Oc4ncccc4Cl)C3)c(CCO)c2)cc1 [Compound 1-295, (S)-(4-(3-(3-chloropyridin-2-yloxy)pyrrolidin-1-yl)-3-(2-hydroxyethyl)phenyl)(p-tolyl)methanone] | 100 to 1000 | ~225 | 100 to 1000 | ~178 | –
OCCc1cc(C(O)c2ccc(F)cc2)ccc1N1CC[C@H](Oc2ncccc2Cl)C1 (stereo partly drawn) [Compound 1-296, 2-(2-((S)-3-(3-chloropyridin-2-yloxy)pyrrolidin-1-yl)-5-((4-fluorophenyl)(hydroxy)methyl)phenyl)ethanol] | > 1000 | 1070 | > 1000 | 2160 | –
OCc1cc(Oc2ccccc2F)ccc1N1CC[C@H](Oc2ncccc2F)C1 [Compound 1-298, (S)-(5-(2-fluorophenoxy)-2-(3-(3-fluoropyridin-2-yloxy)pyrrolidin-1-yl)phenyl)methanol] | 10 to 100 | 65.7 | 10 to 100 | 52.9 | –
CC(C)(C)OC(=O)N1CC=C(c2ccc(N3CC[C@H](Oc4ccc(C(F)(F)F)cn4)C3)c(CCO)c2)CC1 [Compound 1-299, (S)-tert-butyl 4-(3-(2-hydroxyethyl)-4-(3-(5-(trifluoromethyl)pyridin-2-yloxy)pyrrolidin-1-yl)phenyl)-5,6-dihydropyridine-1 (2H)-carboxylate] | > 1000 | > 3200 | – | – | –
Cc1ccc(C(=O)c2ccc(N3CC[C@H](Oc4ncccc4F)C3)c(CO)c2)cc1 [Compound 1-300, (S)-(4-(3-(3-fluoropyridin-2-yloxy)pyrrolidin-1-yl)-3-(hydroxymethyl)phenyl)(p-tolyl)methanone] | 100 to 1000 | 860 | – | – | –
CC(C)(C)OC(=O)N1CCC(c2ccc(N3CC[C@H](Oc4ccc(C(F)(F)F)cn4)C3)c(CCO)c2)CC1 [Compound 1-301, (S)-tert-butyl 4-(3-(2-hydroxyethyl)-4-(3-(5-(trifluoromethyl)pyridin-2-yloxy)pyrrolidin-1-yl)phenyl)piperidine-1-carboxylate] | > 1000 | ~2980 | – | – | –
COc1ccc(Oc2ccc(N3CC[C@H](Oc4ccccn4)C3)c(CO)c2)cc1 [Compound 1-302] | 100 to 1000 | 282 | – | – | –
OCc1cc(Oc2ccc(Cl)c(C(F)(F)F)c2)ccc1N1CC[C@H](Oc2ccccn2)C1 [Compound 1-303] | 10 to 100 | 56.3 | – | – | –
N#Cc1cc(Br)ccc1N1CC[C@H](Oc2ncccc2Cl)C1 [Compound 1-305] | > 1000 | – | – | – | –
CC(=O)c1ccc(Oc2ccc(N3CC[C@H](Oc4ccccn4)C3)c(CO)c2)c(F)c1 [Compound 1-306] | 100 to 1000 | 982 | 100 to 1000 | 735 | –
OCc1cc(Oc2cccc(OC(F)(F)F)c2)ccc1N1CC[C@H](Oc2ccccn2)C1 [Compound 1-307] | 10 to 100 | ~59.5 | – | – | –
CCc1ccccc1Oc1ccc(N2CC[C@H](Oc3ncccc3Cl)C2)c(C#N)c1 [Compound 1-308] | > 1000 | > 3200 | – | – | –
Cc1ccc(C(=O)c2ccc(N3CC[C@H](Oc4ncccc4F)C3)c(CCO)c2)cc1 [Compound 1-309, (S)-(4-(3-(3-fluoropyridin-2-yloxy)pyrrolidin-1-yl)-3-(2-hydroxyethyl)phenyl)(p-tolyl)methanone] | > 1000 | ~2080 | 100 to 1000 | 822 | –
Cc1ccc(C(O)c2ccc(N3CC[C@H](Oc4ncccc4Cl)C3)c(CCO)c2)cc1 (stereo partly drawn) [Compound 1-310, 2-(2-((S)-3-(3-chloropyridin-2-yloxy)pyrrolidin-1-yl)-5-(hydroxy(p-tolyl)methyl)phenyl)ethanol] | > 1000 | 4200 | – | – | –
O=C(c1cccc(F)c1)c1ccc(N2CC[C@H](Oc3ncccc3Cl)C2)c(CCO)c1 [Compound 1-311, (S)-(4-(3-(3-chloropyridin-2-yloxy)pyrrolidin-1-yl)-3-(2-hydroxyethyl)phenyl)(3-fluorophenyl)methanone] | 100 to 1000 | 417 | – | – | –
OCCc1cc(C(O)c2cccc(F)c2)ccc1N1CC[C@H](Oc2ncccc2Cl)C1 (stereo partly drawn) [Compound 1-312, 2-(2-((S)-3-(3-chloropyridin-2-yloxy)pyrrolidin-1-yl)-5-((3-fluorophenyl)(hydroxy)methyl)phenyl)ethanol] | > 1000 | ~1920 | – | – | –
O=C(c1cccc(Cl)c1)c1ccc(CCO)c(N2CC[C@H](Oc3ncccc3Cl)C2)c1 [Compound 1-314, (S)-(3-chlorophenyl)(3-(3-(3-chloropyridin-2-yloxy)pyrrolidin-1-yl)-4-(2-hydroxyethyl)phenyl)methanone] | 100 to 1000 | 229 | 100 to 1000 | 307 | –
O=C(c1ccc(F)cc1)c1ccc(N2CC[C@H](Oc3ncccc3Cl)C2)c(CCO)c1 [Compound 1-315, (S)-(4-(3-(3-chloropyridin-2-yloxy)pyrrolidin-1-yl)-3-(2-hydroxyethyl)phenyl)(4-fluorophenyl)methanone] | > 1000 | 1260 | – | – | –
O=C(Nc1ccc(F)cc1)c1ccc(N2CC[C@H](Oc3ncccc3Cl)C2)c(CCO)c1 [Compound 1-319, (S)-4-(3-(3-chloropyridin-2-yloxy)pyrrolidin-1-yl)-N-(4-fluorophenyl)-3-(2-hydroxyethyl)benzamide] | > 1000 | 3440 | – | – | –
O=C(Nc1ccccc1)c1ccc(N2CC[C@H](Oc3ncccc3Cl)C2)c(CCO)c1 [Compound 1-320, (S)-4-(3-(3-chloropyridin-2-yloxy)pyrrolidin-1-yl)-3-(2-hydroxyethyl)-N-phenylbenzamide] | > 1000 | ~4660 | – | – | –
OCc1nc(-c2ccccc2)ccc1N1C[C@@H](O)[C@H](Oc2ccc(C(F)(F)F)cn2)C1 [Compound 1-323] | > 1000 | 3610 | – | – | –
CCc1ccccc1Oc1ccc(N2CC[C@H](Oc3ncccc3Cl)C2)c(C(N)=O)c1 [Compound 1-324] | – | – | – | – | Incomplete Block (Phase 1)
CC(C)c1ccc(Oc2ccc(N3CC[C@H](Oc4ccccn4)C3)c(CO)c2)cc1 [Compound 1-325] | – | – | – | – | Incomplete Block (Phase 1)
CC(O)c1cc(F)ccc1Oc1ccc(N2CC[C@H](Oc3ccccn3)C2)c(CO)c1 (stereo partly drawn) [Compound 1-326] | > 1000 | 1470 | 100 to 1000 | 575 | –
O=C(c1cccc(Cl)c1)c1ccc(N2CC[C@H](Oc3ncccc3Cl)C2)c(CCO)c1 [Compound 1-328, (S)-(3-chlorophenyl)(4-(3-(3-chloropyridin-2-yloxy)pyrrolidin-1-yl)-3-(2-hydroxyethyl)phenyl)methanone] | 100 to 1000 | 615 | – | – | –
